How the values were obtained:
Test in all cases: Bliss excess, mean over the matrix (fraction); higher = more synergy
[1] = system: NCI-H1341 (Small Cell Lung Carcinoma)
Outline: (§1)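 Cell lines grown in DMEM/F12 or RPMI with 10% FBS were plated in 1536-well plates and held 24 hours at 37°C, 5% CO2 before 72 hours of exposure to two-drug dose matrices, with DMSO typically at 0.2%. CellTiter-Glo 2.0 luminescence gave viability, which was converted to inhibition. Vehicle wells were set to 0 and blank wells to 1. Combination Emax is the second-highest inhibition in the matrix, and Bliss excess is the observed combination effect minus the expected EA + EB − EA·EB, where EA and EB are the single-agent effects.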

WM35 (Melanoma) = system: WM35 (Melanoma)
Outline: as §1

[2] = system: TUR (Acute Myeloid Leukemia)
Outline: as §1

[3] = system: Raji (Burkitt's Lymphoma)
Outline: as §1

[4] = system: MONO-MAC-6 (Acute Myeloid Leukemia)
Outline: as §1

[5] = system: NCI-H596 (Other Solid Carcinomas)
Outline: as §1

[6] = system: CPC-N (Small Cell Lung Carcinoma)
Outline: as §1

[7] = system: IA-LM (Non-Small Cell Lung Carcinoma)
Outline: as §1

[8] = system: SNU-423 (Hepatocellular Carcinoma)
Outline: as §1

SK-N-SH (Neuroblastoma) = system: SK-N-SH (Neuroblastoma)
Outline: as §1

[9] = system: BxPC-3 (Pancreatic Carcinoma)
Outline: as §1

[10] = system: SCC-4 (Oral Cavity Carcinoma)
Outline: as §1

[11] = system: SNU-C2B (Colorectal Carcinoma)
Outline: as §1

[12] = system: CL-11 (Colorectal Carcinoma)
Outline: as §1

[13] = system: NCI-H3118 (Head and Neck Carcinoma)
Outline: as §1

[14] = system: P32-ISH (Burkitt's Lymphoma)
Outline: as §1

[15] = system: DBTRG-05MG (Glioblastoma)
Outline: as §1

AM-38 (Glioblastoma) = system: AM-38 (Glioblastoma)
Outline: as §1

[16] = system: PA-TU-8988T (Pancreatic Carcinoma)
Outline: as §1

[17] = system: PL4 (Pancreatic Carcinoma)
Outline: as §1

COc1cc2c(cc1OCCCCCOc1cc3c(cc1OC)C(=O)N1C=C(C)C[C@H]1C=N3)N=C[C@@H]1CC(C)=CN1C2=O [SG3199] + O=C(c1cc(Cc2n[nH]c(=O)c3ccccc23)ccc1F)N1CCN(C(=O)C2CC2)CC1 [Olaparib] (first compound max 0.001 µM, 7x7, partner max 10 µM)
Bliss excess [1]: -0.0059
Bliss excess (WM35 (Melanoma)): -0.0129
Bliss excess [2]: 0.0081
Bliss excess [3]: 0.0002
Bliss excess [4]: -0.015
Bliss excess [5]: -0.0681
Bliss excess [6]: -0.0062
Bliss excess [7]: -0.0401
Bliss excess [8]: -0.0238
Bliss excess (SK-N-SH (Neuroblastoma)): -0.0454
Bliss excess [9]: -0.0403
Bliss excess [10]: -0.0545
Bliss excess [11]: -0.0374
Bliss excess [12]: -0.016
Bliss excess [13]: -0.0471
Bliss excess [14]: -0.0164
Bliss excess [15]: -0.0357
Bliss excess (AM-38 (Glioblastoma)): -0.0032
Bliss excess [16]: 0.0053
Bliss excess [17]: 0.0304

CCc1c2c(nc3ccc(O)cc13)-c1cc3c(c(=O)n1C2)COC(=O)[C@]3(O)CC [SN-38] + CN(C)CCCOc1ccc(-c2ccc3ncc4c(c3c2)n(C2CCOCC2)c(=O)n4C)cn1 [AZD0156] (first compound max 0.3 µM, 7x7, partner max 1 µM)
Bliss excess [1]: -0.0226
Bliss excess (WM35 (Melanoma)): 0.0082
Bliss excess [2]: 0.0516
Bliss excess [3]: -0.0003
Bliss excess [4]: 0.0746
Bliss excess [5]: 0.027
Bliss excess [6]: 0.199
Bliss excess [7]: -0.0369
Bliss excess [8]: -0.0165
Bliss excess (SK-N-SH (Neuroblastoma)): -0.104
Bliss excess [9]: 0.0025
Bliss excess [10]: 0.0021
Bliss excess [11]: 0.0089
Bliss excess [12]: 0.117
Bliss excess [13]: 0.0864
Bliss excess [14]: 0.0657
Bliss excess [15]: -0.019
Bliss excess (AM-38 (Glioblastoma)): 0.149
Bliss excess [16]: 0.0755
Bliss excess [17]: 0.0253

C[C@@H](c1ccc2nccn2c1)n1nnc2ncc(-c3cnn(C)c3)nc21 [Savolitinib] + CC1(C)CCC(CN2CCN(c3ccc(C(=O)NS(=O)(=O)c4ccc(NCC5CCOCC5)c([N+](=O)[O-])c4)c(Oc4cnc5[nH]ccc5c4)c3)CC2)=C(c2ccc(Cl)cc2)C1 [Venetoclax] (first compound max 1 µM, 7x7, partner max 1 µM)
Bliss excess [1]: 0.0535
Bliss excess (WM35 (Melanoma)): -0.065
Bliss excess [2]: -0.0452
Bliss excess [3]: -0.0114
Bliss excess [4]: 0.0005
Bliss excess [5]: -0.0369
Bliss excess [6]: -0.0454
Bliss excess [7]: -0.0963
Bliss excess [8]: -0.0205
Bliss excess (SK-N-SH (Neuroblastoma)): -0.0289
Bliss excess [9]: -0.0371
Bliss excess [10]: -0.0649
Bliss excess [11]: -0.0831
Bliss excess [12]: -0.0576
Bliss excess [13]: -0.0398
Bliss excess [14]: -0.0188
Bliss excess [15]: -0.0572
Bliss excess (AM-38 (Glioblastoma)): -0.0839
Bliss excess [16]: -0.0763
Bliss excess [17]: -0.105

C[C@@H](c1ccc2nccn2c1)n1nnc2ncc(-c3cnn(C)c3)nc21 [Savolitinib] + Cc1c2c(nn1C)CSCc1cc(n(C)n1)CSc1cc(c3ccccc3c1)OCCCc1c(C(=O)O)n(C)c3c-2c(Cl)ccc13 [AZD5991] (first compound max 1 µM, 7x7, partner max 1 µM)
Bliss excess [1]: 0.0274
Bliss excess (WM35 (Melanoma)): -0.0503
Bliss excess [2]: 0.0026
Bliss excess [3]: -0.0383
Bliss excess [4]: 0.0346
Bliss excess [5]: -0.0852
Bliss excess [6]: -0.0179
Bliss excess [7]: 0.0086
Bliss excess [8]: -0.0364
Bliss excess (SK-N-SH (Neuroblastoma)): -0.0501
Bliss excess [9]: -0.0496
Bliss excess [10]: -0.0295
Bliss excess [11]: -0.0554
Bliss excess [12]: -0.0402
Bliss excess [13]: -0.0268
Bliss excess [14]: -0.0162
Bliss excess [15]: -0.0596
Bliss excess (AM-38 (Glioblastoma)): -0.0194
Bliss excess [16]: -0.0205
Bliss excess [17]: -0.0492

Cn1cnc2c(F)c(Nc3ccc(Br)cc3Cl)c(C(=O)NOCCO)cc21 [Selumetinib] + C=CCn1c(=O)c2cnc(Nc3ccc(N4CCN(C)CC4)cc3)nc2n1-c1cccc(C(C)(C)O)n1 [AZD1775] (first compound max 10 µM, partner max 1 µM)
Bliss excess [1]: 0.0153
Bliss excess (WM35 (Melanoma)): 0.0038
Bliss excess [2]: -0.0146
Bliss excess [3]: -0.041
Bliss excess [4]: -0.013
Bliss excess [5]: -0.0821
Bliss excess [6]: -0.0858
Bliss excess [7]: -0.0017
Bliss excess [8]: -0.0078
Bliss excess (SK-N-SH (Neuroblastoma)): -0.11
Bliss excess [9]: 0.0243
Bliss excess [10]: -0.0376
Bliss excess [11]: -0.0667
Bliss excess [12]: 0.0024
Bliss excess [13]: 0.0207
Bliss excess [14]: -0.0186
Bliss excess [15]: 0.0098
Bliss excess (AM-38 (Glioblastoma)): -0.0541
Bliss excess [16]: -0.0202
Bliss excess [17]: -0.0685

Cn1cnc2c(F)c(Nc3ccc(Br)cc3Cl)c(C(=O)NOCCO)cc21 [Selumetinib] + CC(C)n1c(=O)n(C)c2cnc3cc(F)c(-c4ccc(OCCCN5CCCCC5)nc4)cc3c21 [AZD1390] (first compound max 10 µM, 7x7, partner max 0.3 µM)
Bliss excess [1]: -0.0071
Bliss excess (WM35 (Melanoma)): -0.0551
Bliss excess [2]: -0.0122
Bliss excess [3]: -0.0189
Bliss excess [4]: -0.0166
Bliss excess [5]: -0.0459
Bliss excess [6]: -0.0396
Bliss excess [7]: -0.0102
Bliss excess [8]: -0.0026
Bliss excess (SK-N-SH (Neuroblastoma)): -0.0624
Bliss excess [9]: -0.0518
Bliss excess [10]: -0.0669
Bliss excess [11]: -0.0081
Bliss excess [12]: 0.0011
Bliss excess [13]: 0.0525
Bliss excess [14]: -0.0083
Bliss excess [15]: 0.0213
Bliss excess (AM-38 (Glioblastoma)): -0.0389
Bliss excess [16]: -0.0269
Bliss excess [17]: 0.0102

Cn1cnc2c(F)c(Nc3ccc(Br)cc3Cl)c(C(=O)NOCCO)cc21 [Selumetinib] + CCN(CCO)CCCOc1ccc2c(Nc3cc(CC(=O)Nc4cccc(F)c4)[nH]n3)ncnc2c1 [AZD2811] (first compound max 10 µM, 7x7, partner max 1 µM)
Bliss excess [1]: 0.0264
Bliss excess (WM35 (Melanoma)): -0.0566
Bliss excess [2]: 0.0277
Bliss excess [3]: -0.0166
Bliss excess [4]: 0.003
Bliss excess [5]: -0.035
Bliss excess [6]: -0.0474
Bliss excess [7]: -0.0353
Bliss excess [8]: -0.0263
Bliss excess (SK-N-SH (Neuroblastoma)): -0.0557
Bliss excess [9]: -0.057
Bliss excess [10]: 0.0003
Bliss excess [11]: 0.0193
Bliss excess [12]: 0.0129
Bliss excess [13]: 0.0259
Bliss excess [14]: -0.0479
Bliss excess [15]: 0.016
Bliss excess (AM-38 (Glioblastoma)): -0.0208
Bliss excess [16]: -0.0527
Bliss excess [17]: 0.0097

Cn1cnc2c(F)c(Nc3ccc(Br)cc3Cl)c(C(=O)NOCCO)cc21 [Selumetinib] + C[C@@H]1COCCN1C2=NC(=NC(=C2)C3(CC3)[S@](=N)(=O)C)C4=C5C=CNC5=NC=C4 [AZD6738] (first compound max 10 µM, 7x7, partner max 10 µM)
Bliss excess [1]: 0.0757
Bliss excess (WM35 (Melanoma)): 0.0172
Bliss excess [2]: 0.0151
Bliss excess [3]: -0.0273
Bliss excess [4]: -0.0052
Bliss excess [5]: -0.0333
Bliss excess [6]: -0.046
Bliss excess [7]: 0.0061
Bliss excess [8]: -0.0238
Bliss excess (SK-N-SH (Neuroblastoma)): -0.0719
Bliss excess [9]: -0.0197
Bliss excess [10]: -0.0352
Bliss excess [11]: 0.0369
Bliss excess [12]: 0.0244
Bliss excess [13]: 0.0091
Bliss excess [14]: -0.0153
Bliss excess [15]: 0.0599
Bliss excess (AM-38 (Glioblastoma)): 0.104
Bliss excess [16]: 0.0731
Bliss excess [17]: 0.0866

Source: the supplement of paper PMC11061612
